Source: US6808884B2, “Methods and compositions for detecting polynucleotide duplex damage and errors” (California Institute of Technology, priority 2000, dated 2004)

How the values were obtained:
[1] = tested on: DNA duplexes (SEQ ID NO:1 / SEQ ID NO:2) having base-pair mismatches; assay: Photocleavage of 17mer DNA duplexes with varied X-Y base pair, 365 nm irradiation, PAGE analysis; format: biochemical; conditions: duplex 10 μM, complex 1 μM, pH 7.0, 13 min at 365 nm
Method: A set of DNA duplexes was prepared having the following sequence: 3′-[…]-5′(SEQ ID NO:1)
5′-[…]-3′(SEQ ID NO:2),
where X and Y were varied to provide A-T, G-C, and the following mismatches: C-C, C-A, T-T, A-A, T-C, T-G, G-A, and G-G. All oligonucleotides were prepared using standard phosphoramidite chemistry, and were purified by reverse phase HPLC. The oligonucleotides were 5′ end-labeled with γ-^32P ATP (Dupont-NEN) and T4 polynucleotide kinase (New England Biolabs).
Duplexes (10 μM) were incubated with Δ or Λ [Rh(bpy)2 (chrysi)]^3+(1 μM in 50 mM Tris, 20 mM NaOAc, 18 mM NaCl, pH 7.0) for 11 minutes, then irradiated for 13 min at 365 nm using an Oriel HgXe arc lamp. The products were analyzed by PAGE (20%, denaturing), imaged using a Molecular Dynamics Phosphorimager. […] Here, cleavage occurred to the 3′ side of the mismatch site. […] Unlike the other recognized mismatches, the cleavage 3′ to C-A results in two products having different gel mobility, possibly the result of chemically different polymer termini. The cleavage of A-A was also distinctive.

[2] = tested on: DNA duplexes with mismatch-sequence context combinations; assay: DNA photocleavage with bases 5′ and 3′ of the mismatch site systematically changed; format: biochemical; conditions: flanking bases 5′ and 3′ of the mismatch systematically changed

Substance | photocleavage at A-A mismatch, at the A-A site itself [1] | photocleavage at A-A mismatch, base 3′ to the site [1] | photocleavage at C-A mismatch ([1]; at the mismatched C and the neighbouring base 3′) | photocleavage intensity at C-C mismatch ([1]; cleavage 3′ of the mismatch site) | photocleavage intensity at T-C mismatch ([1]; compared with C-C) | photocleavage intensity at T-T mismatch ([1]; compared with C-C) | mismatch-sequence context combinations at which photocleavage was observed (count) [2] | mismatch-sequence context combinations at which photocleavage was observed (share) [2] [%] | mismatch pairs cleaved among C-C, C-A, T-T, A-A, T-C, T-G, G-A, G-G [1] | photocleavage at A-A mismatch, relative to the other enantiomer [1]
Δ-[Rh(bpy)2 (chrysi)]Cl3 [Δ-[Rh(bpy)2 (chrysi)]^3+] | small amount of cleavage | strong cleavage | Strong cutting | strongest cleavage intensity | less intense cleavage | less intense cleavage | 83 of 104 | 80 |  | 
Λ[Rh(bpy)2 (chrysi)]Cl3 [Λ enantiomer] |  |  |  |  |  |  |  |  | A-A mismatch is the only pair cleaved | weaker cleavage than the Δ enantiomer
